Source: ChEMBL document CHEMBL3507680, “University of Dundee, Gates Library screen for HepG2 cell viability”

Assay: Human HepG2 cell viability assay in 384 well format
Format: toxicity, cell-based
Design: dose 125 nL, time 70.5 hour; concentration not given beside the values
Conditions: HepG2 cells, read-out: Inhibition

Compound	cytotoxicity at 70.5 h
CC(C)(C)c1ccc(C2(C(=O)NCCS(N)(=O)=O)CC2)cc1	-9.31%
CS(=O)(=O)NCC1CCCN(C(=O)Nc2ccccc2N2CCCC2)C1 (stereo not drawn)	-1.87%
Nc1nc2c(c(NCC(c3cccnc3)N3CCOCC3)n1)CCNC2 (stereo not drawn)	-10.5%
CCc1ncc(C(=O)N2C[C@@H](C)O[C@@H](C)C2)cn1	-5%
CC(C)c1cc(C(=O)NCCc2nc(-c3ccncc3)n[nH]2)[nH]n1	-5.69%
Cc1cc(O)c(OCC(=O)/N=c2\[nH]c(C)c(C)s2)cn1	5.16%
O=C(O)c1cc(-c2cccnc2)cc(S(=O)(=O)N2CCCCCC2)c1	-11.7%
CN(CCN1CCCCCC1)C(=O)c1cc(CN2CCC(O)CC2)on1	-0.511%
Cc1nn(C)c(C)c1S(=O)(=O)N1CC[C@@H]2O[C@@H](C)C[C@H]2C1	-11.2%
CS(=O)(=O)NCCNCc1ccc(Br)s1	3.93%
CN(Cc1ccco1)C(=O)CN1CCCC1c1cccs1 (stereo not drawn)	24.6%
CCS(=O)(=O)N1CCC2(C1)C(=O)N(C)CCN2Cc1ccncc1 (stereo not drawn)	-7.36%
CC(C)(C)c1nc(CN2CCCC(Cn3cncn3)C2)cs1 (stereo not drawn)	25.2%
Cc1oncc1C(=O)N1CC[C@H]2C[C@H](c3ccncn3)O[C@@H]2C1	7.58%
CS(=O)(=O)NC1(CCc2ccc(NC(=O)C3CC3)nc2)CCCCC1	15%
COc1ncc(CN(C)C(C)c2cccnc2)cn1 (stereo not drawn)	9.74%
Cn1ncc2c1CCCC2NCc1ccc(OCc2cccnc2)cc1 (stereo not drawn)	-14.4%
CC(C)C(=O)N1CCC(c2nc(O)cc(-c3ccncc3)n2)CC1	-15.8%
Oc1nnc(-c2cccs2)c2sc(N3CCCCC3)nc12	-1.82%
COCCN1CCN(c2nc(O)cc(Cc3ccccc3F)n2)CC1	-5.81%
CCOC1COC2(CCN(Cc3cccnc3OC)CC2)C1 (stereo not drawn)	-1.38%
c1cncc(CN2CCCC(c3nnc(-c4cnccn4)o3)C2)c1 (stereo not drawn)	-14%
Cc1nnc2n1CCN(C(=O)c1ccn(-c3cccc(F)c3)n1)C2	5.14%

Compound	cytotoxicity at 70.5 h
COCCNC(=O)Cn1cc2c(n1)c(C)nn2C(C)C	-5.84%
CCCN1CC2(CCN(c3cc(C4CC4)ncn3)CC2)CC1C(=O)O (stereo not drawn)	-4.45%
Cc1ccc(C(C)NC(=O)N2CCCN(CC(F)F)CC2)s1 (stereo not drawn)	-2.75%
CN(Cc1ccc(OCC(=O)N2CCOCC2)cc1)S(C)(=O)=O	2.5%
CC1CN(C)CCN1C(=O)c1cnn(-c2cccc(Cl)c2)c1 (stereo not drawn)	-9.03%
O=C(O)c1ccc2c(c1)C1(CCCCC1)CN2C(=O)c1ccnnc1	-4.43%
CCN(CCO)Cc1cn(-c2cccc(F)c2)nc1-c1ccc(C)o1	-14.6%
COc1ccc(C(C)(C)C(=O)NCc2n[nH]c(=O)[nH]2)cc1	-1.62%
Cc1nnc2n1CCN(CCOc1cccc(C#N)c1)C2	-4.21%
O=C(Nc1ccnc(OC2CCOC2)c1)C1CCC1 (stereo not drawn)	-2.33%
Cc1nccn1CCC1CCN(C(=O)C2CC3(CCNCC3)CN2)CC1 (stereo not drawn)	-8.48%
CC(=O)c1cn(CCC(=O)NCCC(=O)O)c2ccccc12	-12.4%
Cc1noc(C)c1CN1CCn2cc(CNc3ccccn3)nc2C1	5.28%
O=C1[C@H]2CN(Cc3ccoc3)C[C@@H]2CCN1Cc1cccnc1	-8.89%
CC(C)(C)NC(=O)CN1CCCC(c2ccc(C(=O)O)cc2)C1 (stereo not drawn)	0.492%
O=C(CCOc1ccc(F)cc1)N1CCCC1Cn1cccn1 (stereo not drawn)	-2.78%
Cn1ccc(CNC(=O)N2CCC(C3(C)OCCO3)CC2)c1	-8.7%
O=C(c1ccco1)N(CC(F)(F)F)C1CCOCC1	-7.66%
CC(C)OCCCN(CC(=O)N1CCNCC1)C(=O)c1ccc(F)cc1	19.8%
CCC(CC)CS(=O)(=O)NC(=O)C1CCC1	-4.87%
Cn1cc(CN2CCC3(CC2)CC(c2ccncc2)C(=O)N3)cn1 (stereo not drawn)	-10.1%
O=c1n(Cc2ccc(F)cc2)nc2ncccn12	24.8%
COc1cccc(OCC2CCCN(C3CCN(C(C)=O)CC3)C2)c1 (stereo not drawn)	-4.72%

Compound	cytotoxicity at 70.5 h
Cc1ncncc1C(=O)N1CCCN(Cc2nccn2C(C)C)CC1	-8.96%
CO[C@@H]1CCN(c2nnc(C)s2)C[C@@H]1Cc1cccc(C)c1	-0.0343%
c1cnc(-c2nc(CN3CCN(CC4CC4)CC3)cs2)nc1	-5.7%
CC(C)n1ccc(C(=O)OCC2CC(=O)N(Cc3ccccc3)C2)n1 (stereo not drawn)	-8.67%
CC(C)(C)CN1CCN(CC2CC2)C(CCO)C1 (stereo not drawn)	-0.19%
CC(C)NS(=O)(=O)c1cc(C(=O)O)cc(-c2ccc3c(c2)OCO3)c1	-9.21%
CN1CCCN(C[C@@H]2CN(C(=O)CC3CCC3)C[C@@H]2CO)CC1	-2.25%
Cc1cc2nc(C(C)C)cc(N(C)CC3CCN(C(C)C)C3)n2n1 (stereo not drawn)	28%
O=C(c1ccccn1)N1CCc2c(nc(-c3ccncc3)[nH]c2=O)C1	-6.64%
CC(C)OCc1ncn2c1CN(Cc1ccoc1)CCC2	-11.8%
CSCCC(O)C(=O)N1CCCN(Cc2ccc(F)cc2)CC1 (stereo not drawn)	8.69%
CC(C)(C)c1cc(CN2CCOC(CN)C2)n[nH]1 (stereo not drawn)	2.01%
CC(=O)N(C)Cc1ncn2c1CN(C(=O)C1CCCO1)CCC2 (stereo not drawn)	-5.86%
COc1cccc(N2CCN(C(=O)c3ccc(=O)n(C)c3)CC2)c1	-3.95%
CNS(=O)(=O)c1ccc(CN2CCCC2c2ccc(F)cc2)cc1 (stereo not drawn)	-5.9%
Cc1nn(C)c(N(C)C)c1CNCc1ccc(OCCN(C)C)cc1	22.3%
COCCN1CCN(Cc2ccc(F)c(C)c2)[C@H]2CS(=O)(=O)C[C@H]21	17.8%
CC(C)n1nc2c(cc1=O)CN(Cc1nc(-c3ccco3)no1)CC2	-5.7%
CC(C)C(Sc1nnc(NC2CC2)s1)C(=O)NCc1cccnc1 (stereo not drawn)	-15.5%
Cc1c(C(=O)NC(C)C)nnn1-c1cccc(C(F)(F)F)c1	-4.53%
C[C@@H]1CN(Cc2cccc(F)c2)C[C@]12CCN(Cc1cccnc1)C2=O	-10.4%
Brc1cccc(-c2noc(CN3CCOCC3)n2)c1	-2.61%
CC(C)[C@H](NC(=O)NC1CCS(=O)(=O)C1)C(=O)NCc1ccc(Cl)cc1 (stereo partly drawn)	-18.2%

Compound	cytotoxicity at 70.5 h
CC(C)(C)NC(=O)CN1CCNCC1	6.83%
Cc1ccc(NC(=O)CN2CCOCC2)c(F)c1	21.2%
Cc1noc(C)c1CS(=O)(=O)CC(=O)NCCc1ccccc1	15.9%
CCCS(=O)(=O)CCN1CCN(C(C#N)c2ccccc2)CC1 (stereo not drawn)	-8.86%
Cc1cccc(C2(NC(=O)CCN3C(=O)CCC3=O)CCCC2)c1	-6.61%
O=C(COC[C@]12COC[C@H]1CN(C1CCC1)C2)N1CCCC1	3.04%
CNC(=O)Cc1noc(Cc2cccc(Br)c2)n1	-9.45%
O=C(C1CC1)N1C[C@H]2CCCN(S(=O)(=O)c3cccc(F)c3)[C@H]2C1	3.8%
CCN(C)CC1CCN(C(=O)Nc2ccc(C)cc2)C1 (stereo not drawn)	-3.05%
Cc1ccccc1-n1c(O)cc(C)c(C#N)c1=O	-1.83%
COCCN1CCC(c2nc3c([nH]2)CCCNC3=O)CC1	-8.24%
O=C1COC2(CCN(Cc3ccoc3)CC2)CN1CCn1cccn1	-2.81%
CNC(=O)CCNC(=O)c1ccccc1N1CCOCC1	-4.86%
CC(C)Cc1nc(CS(C)(=O)=O)n(-c2ccccn2)n1	-7.54%
O=C(c1nsc(Cl)c1Cl)N1CCc2nc3sccc3c(=O)n2CC1	-3.17%
Cc1nc[nH]c1C(=O)N1CC[C@@H](NC(=O)c2ccccn2)[C@H](O)C1	-1.79%
O=C(NCC1(CO)CC1)c1cccc2ccccc12	2.2%
COC(=O)c1cccc(C(=O)N(C)Cc2cccc(F)c2)c1	5.14%
CCn1nc(CC(C)C)cc1C(=O)N1CCN([C@H]2CCCC[C@@H]2O)CC1	-2.99%
CCS(=O)(=O)N1CCC2(CN(c3cccc(F)c3)C(=O)CN2C)C1 (stereo not drawn)	-8.93%
CN(Cc1noc2c1CCCC2)C(=O)CN1C(=O)COc2ccccc21	-6.93%
O=C(O)c1nc(SCc2ccccc2)ncc1Br	-8.29%
CCc1nc(C2CCCN2CCc2ccccn2)no1 (stereo not drawn)	24.9%

Compound	cytotoxicity at 70.5 h
c1ncc(-c2ccc(C3CNCCO3)nc2)cn1 (stereo not drawn)	-3.27%
COc1ccc(CN2CCOC(CCc3ccnc(N)c3)C2)cc1 (stereo not drawn)	-0.852%
CN(C(=O)c1ncn2c1CN(C)S(=O)(=O)c1ccccc1-2)C1CC1	-3.76%
Cc1n[nH]c(C)c1C1COCCN1C(=O)Cc1cccc(F)c1 (stereo not drawn)	-4.4%
CCn1ccc(C(=O)N2CCCC2(C)c2nc(C)cc(N(C)C)n2)n1 (stereo not drawn)	-7.92%
CN(Cc1ccc(F)cc1)C(=O)c1ccoc1CN1CCNC(=O)C1	-18.2%
COCC(=O)NC1CC2(CCN(CC3CC3)CC2)Oc2ccccc21 (stereo not drawn)	18.1%
CCn1nccc1CN(C)C(=O)Cn1nc(C)cc1C	16.1%
Cc1nc2c(c(N(C)Cc3ccccc3-n3cccn3)n1)CCNCC2	26.5%
COC(=O)c1ccc(NC(=O)CCc2ccncc2)c(C)c1	-11.9%
CCOc1ncccc1NC(=O)N1CCc2ccccc2C1	-12%
N#Cc1cc(C#N)c(SCC(=O)Nc2ccc(F)cc2)nc1N	5.41%
CCC(=O)N1CCC2(CC1)COc1ccccc1S(=O)(=O)N(C)C2	-14.6%
COc1cccc(-c2nc(C)c(C(=O)N[C@H](CO)CC(C)C)s2)c1	-22.7%
COCC(=O)NCc1cc(=O)n2c(n1)CN(Cc1ccncc1)CCC2	-0.67%
CC(C)NC(=O)N1CCCn2cnc(CO)c2C1	6.26%
CS(=O)(=O)N1CC(c2nc(N)ncc2-c2ccc(F)cc2)C1	-2.15%
Cn1ccnc1-c1nc2cc(S(=O)(=O)N3CCCC3)ccc2n1C	-26.2%
CC(=O)NCCC(=O)Nc1cccc(N2CCN(CC3CC3)CC2)c1	-0.54%
COc1cccc(-c2ccnc3nc(N4CCCCC4)[nH]c(=O)c23)c1	17.7%
Cc1cc(C)n(CC2CCCN2C(=O)c2cccc(C#N)c2)n1 (stereo not drawn)	-2.63%
